The compounds below were run against human RAF1 (Homo sapiens (Human), UniProt P04049) (assay: Protein kinase assay (radiometric 33P-ATP, MEK1 (K97R) substrate)). Conditions: substrate human MEK1 (K97R) 3 micromolar, ATP 10 micromolar, 3-fold dilution from 10 micromolar, read-out: RAF-1 IC50.
Format: biochemical
Experimental: Protein kinase assay: Assay platform was used to measure kinase/inhibitor interactions as described previously (Anastassiadis et al., 2011). In brief, for each reaction, kinase and substrate were mixed in a buffer containing 20 mM HEPES (pH 7.5), 10 mM MgCl2, 1 mM EGTA, 0.02% Brij35, 0.02 mg/mL BSA, 0.1 mM Na3VO4, 2 mM DTT, and 1% DMSO. All compounds were solubilized in DMSO. Compounds were then added to each reaction mixture via acoustic dispense using an ECHO 550 nanoliter dispenser. For human RAF1 testing, human MEK1 (K97R) was used as a substrate at a concentration of 3 micromolar, with a final ATP concentration of 10 micromolar. For human BRAF testing, human MEK1 (K97R) was used as a substrate at 1 micromolar concentration, with a final ATP concentration of 25 micromolar. […] After a 20-min incubation, ATP (Sigma-Aldrich, St. Louis, Mo. 63178) and [g33P] ATP (specific activity 10 microCi/microliter) purchased at PerkinElmer (Boston, Mass., 02118 Cat #BLU 003H250UC) were added at a final total concentration of 10 mM. Reactions were carried out at room temperature for 2 hr and spotted onto P81 ion exchange cellulose chromatography paper (Reaction Biology). Filter paper was washed in 0.75% phosphoric acid to remove unincorporated ATP. The percent remaining kinase activity relative to a vehicle-containing (DMSO) kinase reaction was calculated for each kinase/inhibitor pair. IC50 values were calculated using Prism 5 (GraphPad).

Chain of human RAF1 (P04049 whole entry): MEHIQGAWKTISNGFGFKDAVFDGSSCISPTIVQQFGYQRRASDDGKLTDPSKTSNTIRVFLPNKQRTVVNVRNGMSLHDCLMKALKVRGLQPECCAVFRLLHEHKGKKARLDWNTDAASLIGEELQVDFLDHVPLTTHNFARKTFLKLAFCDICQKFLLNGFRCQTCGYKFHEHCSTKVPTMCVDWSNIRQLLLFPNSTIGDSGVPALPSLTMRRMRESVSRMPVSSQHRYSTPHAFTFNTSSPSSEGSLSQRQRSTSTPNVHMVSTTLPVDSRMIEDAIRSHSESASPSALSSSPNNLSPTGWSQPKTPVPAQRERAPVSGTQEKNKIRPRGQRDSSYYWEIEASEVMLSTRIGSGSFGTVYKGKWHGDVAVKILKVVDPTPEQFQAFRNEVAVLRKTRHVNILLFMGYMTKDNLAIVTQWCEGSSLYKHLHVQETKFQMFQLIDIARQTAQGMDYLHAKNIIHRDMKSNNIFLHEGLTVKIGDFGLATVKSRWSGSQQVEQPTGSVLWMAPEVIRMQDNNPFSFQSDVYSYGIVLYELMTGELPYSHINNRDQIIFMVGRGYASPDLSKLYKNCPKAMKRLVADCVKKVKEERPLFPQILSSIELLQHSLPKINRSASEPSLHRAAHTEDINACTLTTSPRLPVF

IC50 | Structure (SMILES)
≤ 0.01 µM | CNc1ncc2cc(-c3cc(NC(=O)N4CCOC(C(F)(F)F)C4)ccc3C)cnc2n1 (stereo in doubt) [Example 58, (2S)-N-[4-methyl-3-2-(methylamino)pyrido[2,3-d]pyrimidin-6-yl]phenyl]-2-(trifluoromethyl)morpholine-4-carboxamide]
≤ 0.01 µM | CNc1ncc2cc(-c3cc(NC(=O)N4CC[C@H](OC(F)F)C4)c(F)cc3C)cnc2n1 [Example 28, (S)-3-(difluoromethoxy)-N-(2-fluoro-4-methyl-5-(2-(methylamino)pyrido[2,3-d]pyrimidin-6-yl)phenyl)pyrrolidine-1-carboxamide]
≤ 0.01 µM | C#Cc1nc2nc(NC)ncc2cc1-c1cc(NC(=O)c2ccnc(C(F)(F)F)c2)ccc1C [Example 67, N-[3-[7-ethynyl-2-(methylamino)pyrido[2,3-d]pyrimidin-6-yl]-4-methylphenyl]-2-(trifluoromethyl)pyridine-4-carboxamide]
